Measured values: US20250177372A1, “LIQUID FORMULATIONS OF INDACATEROL AND GLYCOPYRRONIUM” (AeroRx Therapeutics, Inc., priority 2022, published 2025)
Counter-ions that a name gives are not always drawn.

Legend:
Format in all cases: physicochemical
[1] = Aqueous solubility of indacaterol and indacaterol maleate in water (orbital shaker, UV-Vis); conditions: for pH after dissolution / Solubility: water, initial pH 7.1; for Solubility: shaken 12 hours, UV-Vis
Procedure: Solubility studies of indacaterol and indacaterol maleate were performed using an orbital shaker method. Excess indacaterol was placed in a glass vial with water. The initial pH of the water was 7.1. Samples were shaken for 12 hours to ensure equilibrium was reached. After the 12 hour period, the vial was removed from the shaker and allowed to settle for 30 minutes. Then, the sample was filtered using a 0.2 μM polyvinylidene fluoride (PVDF) syringe filter; the initial 0.5 mL of filtrate was discarded. The pH was then measured and the concentration of the indacaterol was evaluated by UV-Vis.

[2] = Forced degradation study of indacaterol (RP-HPLC impurities); conditions: for Total Impurities* (%): includes 2% process-related impurity
Procedure: A degraded sample panel was prepared to identify indacaterol degradation pathways and products. Stress conditions are outlined in Table 1.
One of 6N HCl, 6N NaOH, or 30% H2O2 (aqueous) were added to a suitable volume of 100 μg/mL indacaterol and diluted with water:methanol (50:50, v:v) to achieve a final indacaterol concentration of 10 μg/mL. Samples were stored at ambient temperature. At specified time points, acidic and basic hydrolysis (1 N HCl and 1 N NaOH, respectively) samples were neutralized (H2O2 samples were not quenched) and reversed-phase high performance liquid chromatography (RP-HPLC) was used to quantitate indacaterol impurities. All samples were diluted to 5 μg/mL prior to RP-HPLC analysis. Method parameters are outlined in Table 2.
Total impurities (process-related and product-related) of the indacaterol forced degradation study samples are presented in Table 3. Forced degradation impurity peaks were identified based on their retention time relative (RRT) to the indacaterol peak. Impurity peaks already present in the indacaterol (control group at T0; total peak area approximately 2%) were considered process-related, while additional peaks formed after the degradation were considered product-related.

[3] = Aqueous solubility of indacaterol with varying pH in citrate buffer (orbital shaker, UV-Vis); conditions: aqueous citrate buffer 5 mM
Procedure: Solubility studies of indacaterol in solutions of varying pH were performed using an orbital shaker method. Excess indacaterol was placed in a glass vial with an aqueous citrate buffer (5 mM; prepared from citric acid and NaOH). Samples were shaken for 12 to 24 hours to ensure equilibrium was reached before checking and adjusting the pH (using 1 M HCl and NaOH) and placing samples back into the orbital shaker for an additional 12 hours. This process was repeated up to two times or until the desired pH was obtained. After the desired pH was reached, the vial was removed from the shaker and allowed to settle for 30 minutes. Then, the sample was filtered using a 0.2 μM PVDF syringe filter; the initial 0.5 mL of filtrate was discarded. The pH was then measured and the concentration of the indacaterol was evaluated by UV-Vis.

[4] = Acidic Hydrolysis (1M HCl), 15 h, ambient temperature
[5] = Basic Hydrolysis (1M NaOH), 15 h, ambient temperature

SMILES: CCc1cc2c(cc1CC)CC(NC[C@H](O)c1ccc(O)c3[nH]c(=O)ccc13)C2 [Indacaterol maleate, indacaterol maleate]
- pH after dissolution [1]: 3.30
- Solubility [1]: 230 µg/mL

SMILES: CCc1cc2c(cc1CC)CC(NC[C@H](O)c1ccc(O)c3[nH]c(=O)ccc13)C2 [Indacaterol, (R)-5-[2-(5,6-Diethylindan-2-ylamino)-1-hydroxyethyl]-8hydroxy-1H-quinolin-2-one]
- Total Peak Area (%) ([2]; Acidic Hydrolysis (1M HCl), 15 h): 99.79%
- Indacaterol (%) [2, 4]: 92.54%
- Total Impurities* (%) [2, 4]: 7.25%
- Indacaterol (%), Change in % peak ([2]; Acidic Hydrolysis (1M HCl), 15 h vs T0): −3.27%
- Indacaterol (%) ([2]; Acidic Hydrolysis (1M HCl), T0): 95.81%
- Total Peak Area (%) ([2]; Acidic Hydrolysis (1M HCl), T0): 99.82%
- Total Impurities* (%) ([2]; Acidic Hydrolysis (1M HCl), T0): 4.01%
- Total Peak Area (%) ([2]; Basic Hydrolysis (1M NaOH), 15 h): 99.75%
- Indacaterol (%) [2, 5]: 92.06%
- Total Impurities* (%) [2, 5]: 7.69%
- Indacaterol (%), Change in % peak ([2]; Basic Hydrolysis (1M NaOH), 15 h vs T0): −3.76%
- Indacaterol (%) ([2]; Basic Hydrolysis (1M NaOH), T0): 95.82%
- Total Peak Area (%) ([2]; Basic Hydrolysis (1M NaOH), T0): 99.81%
- Total Impurities* (%) ([2]; Basic Hydrolysis (1M NaOH), T0): 3.99%
- Total Peak Area (%) ([2]; Control, T0): 99.85%
- Indacaterol (%) ([2]; Control, T0, 10 μg/mL in MeOH:H2O (50:50), ambient temperature): 98.04%
- Total Impurities* (%) ([2]; Control, T0): 1.81%
- Indacaterol (%) ([2]; Oxidation (1.2% H2O2), 7 h): 97.03%
- Total Peak Area (%) ([2]; Oxidation (1.2% H2O2), 7 h): 99.89%
- Total Impurities* (%) ([2]; Oxidation (1.2% H2O2), 7 h): 2.77%
- Indacaterol (%) ([2]; Oxidation (1.2% H2O2), 29 h): 90.76%
- Total Peak Area (%) ([2]; Oxidation (1.2% H2O2), 29 h): 99.59%
- Total Impurities* (%) ([2]; Oxidation (1.2% H2O2), 29 h): 8.83%
- Total Impurities* (%) ([2]; Oxidation (1.2% H2O2), 29 h, listed as indacaterol): approximately 9%
- Indacaterol (%), Change in % peak ([2]; Oxidation (1.2% H2O2), 29 h vs 7 h): −6.27%
- degradation of indacaterol samples in aqueous solutions over time (FIG. 1) ([2]; forced degradation experiment, staggered chromatogram): minimal degradation
- solubility in water ([1]; water at pH 7.1): insoluble
- pH after dissolution [1]: 6.20
- Solubility [1]: < 1 µg/mL
- dependence of indacaterol solubility on pH [3]: increase with decreasing pH
